Reference: EP2476410A1, “An analgesic peptide-containing composition for transbuccal administration” (priority 2011, dated 2012)
Entries after “also recorded” stand apart in the source; their conditions may differ. Where two headings read alike, the source gives them in different places. Marks after values point to notes of the source that are not given here. Where a SMILES comes first, the peptide text is derived from it.

Legend:
Swiss albino mice [1] = experiment: Hot plate model; type: in vivo; details: intraperitoneal administration, 30 min post-dose, positive control
Swiss albino mice [2] = experiment: Spontaneous locomotor activity; type: in vivo
Protocol: Swiss albino mice (∼30 - 40 g) were first placed into their respective chambers with a 20 min pre-treatment recording. Only mice showing at least 50 counts / 5 min are used in the experiments. Mice were administered saline (control), peptide (5 or 50 mg/kg) or morphine (50 mg/kg). Experimenters were blind to the identity of the drug solutions. After drug administration, the animals were placed into their individual chambers and their spontaneous locomotor activity was recorded by video tracking and the data were recorded for a period of 4 h. Statistical comparison was done by 2-way ANOVA.

Swiss albino mice [3] = experiment: Rotarod test; type: in vivo
Protocol: Swiss albino mice (∼20-30 g) were first trained on the rotarod, which accelerated from 0-20 rpm over 5 min, prior to the experiment. Only mice that were capable of staying on the rotarod for the entire 5 min period were used in this experiment. Mice were either administered with the peptide (1 or 10 mg/kg, sublingual), or morphine (20 mg/kg, subcutaneous). After drug administration, the animals are placed on the rotarod and the time taken for the mice to slip was recorded (up to 5 min), and subsequently at 1h, 2h and 3h post peptide, and at 30 min, 1h30 min and 2h30 min post morphine. Statistical comparison was done by either Student's t-test or one-way ANOVA.

Swiss albino mice [4] = experiment: Acetic acid-induced writhing model; type: in vivo; details: 1 mg/kg, intraperitoneal
Protocol: Swiss albino mice (20-25 g, male) were administered with the peptide and at the appropriate post- dose time acetic acid (0.9% solution) was injected intraperitoneally (10 ml/kg). The mice were then placed in a transparent observer box and the total number of writhes per animal in the 15 min period after injection of acetic acid was recorded. A writhe is typically characterized by contractions of the abdominal musculature followed by extension of the hind limbs. Statistical comparison was done by either Student's t-test or one-way ANOVA.
At 1 h post administration time, acetic acid (0.9% solution) was injected intraperitoneally and the total number of writhes per animal was recorded, as described above. Upon completion of the experiment the animals were sacrificed and skull exposed. The accuracy of the injection was confirmed via injection of methyl-blue dye into the injection aperture left by the original injection. Only results from mice showing coloration of the ventricles are accepted.

Swiss albino mice [5] = experiment: GI motility (charcoal transit distance); type: in vivo; details: 30 min post-drug
Protocol: Swiss albino mice (30-35 g) were injected with saline, the peptide (5 mg/kg, 50 mg/kg intraperitoneal) or morphine (0.5 mg/kg, 5 mg/kg, 50 mg/kg intraperitoneal). The experimenters are blind to the identity of the solutions. All mice were administered 5 mg charcoal (0.1 ml of 50 mg/ml charcoal solution) via oral gavage immediately after drug administration. At 30 min post- drug / charcoal administration, the mice were sacrificed by cervical dislocation and the GI tract was exposed and the location of the charcoal identified. The distance the charcoal traveled in the intestine from the stomach was measured and expressed as % of total length of the GI tract.

rats [6] = experiment: Open-field test (anxiety score); type: in vivo
From the text: The open field test is generally used to assess anxiety level of rodents due to their natural aversion of open space and thus their preference to stay near the side rather than venturing to the more open central part of the open field.
The open field was divided into 16 equal size squares (25 x 25 cm). The 4 squares at the centre are assigned a low anxiety score (0) while those at the 4 corners are assigned a high anxiety score (2). The remaining 8 squares are assigned a medium score (1). A rat entering each square will be given the score assigned to that square. The sum total obtained within the 5-min test period divided by the number of squares entered is the anxiety score for that rat. Diazepam was used as positive control. Statistical comparison was done by Student's t-test.

rats [7] = experiment: Elevated-plus maze test; type: in vivo
From the text: The Elevated-Plus Maze Test is generally used to assess anxiety level of rodents due to their natural aversion for height. Two opposite arms of the elevated-plus maze are enclosed by high walls (closed arms) while the other two are not (open arms). The test animals (rats) naturally prefer and spend more time in the closed arms.

[8] = Pharmacokinetics: plasma concentration and bioavailability by route (LC/MS/MS); type: in vivo, mice; details: for bioavailability: AUC compared to intravenous route
Protocol: The peptide (1, 5, 15 and 25 mg/kg, 0.5 ml/kg) was administered sublingually to mice. Upon reaching specified time points of 1, 5, 15, 30, 60 and 120 min post-dose, each mouse was sacrificed and blood samples were collected via cardiac puncture. Plasma samples were then extracted and analyzed under LC/MS/MS. Systemic exposure of the peptide was also studied through intravenous, oral (gavage) and intraperitoneal routes.

Swiss albino mice [9] = experiment: Toxicity, single dose regimen, 14 days observation; type: in vivo; details: for Appearance / Body Weight Day 1 / Body Weight Day 14 / Death: intraperitoneal, single dose
Protocol: Swiss albino mice were administered with the peptide at 8 mg/kg or 80 mg/kg (intraperitoneal) on day 1 and then observed for 14 days. Control mice received saline.
At the end of the period, all mice were sacrificed, dissected and observed for any obvious abnormality. Weights of the major organs, including brain, heart, lung, liver, spleen and kidney, were recorded.

Sprague-Dawley rats = experiment: Acute effect on blood pressure, heart rate and respiration rate in anesthetized rats; type: in vivo; details: 5 and 20 mg/kg
Protocol: Sprague-Dawley rats (∼300 g) were anesthetized and the carotid artery was cannulated for blood pressure measurement. Drugs were administered by the pre-determined route. A pulse transducer was secured across the thoracic region of the rat to allow measurement of respiration rate. Blood pressure was recorded for at least 15 min or until a relatively stable blood pressure was observed.

mice = experiment: Acute high dose toxicity (oral and intravenous); type: in vivo
Protocol: Acute toxicity was determined by both oral and intravenous administration of the peptide. Three mice were given a dose of peptide at 2 g/kg orally by gavage, 5 ml/kg.

Swiss albino mice [10] = experiment: Toxicity, multiple dose regimen, once daily for 14 days; type: in vivo; details: for Appearance / Body Weight Day 1 / Body Weight Day 14 / Death: Intraperitoneal, daily
Protocol: Swiss albino mice were administered with the peptide at 8 mg/kg or 80 mg/kg (intraperitoneal) once daily for 14 days. Control mice received saline. At the end of the period, all mice were killed, dissected and observed for any obvious abnormality. Weights of the major organs, including brain, heart, lung, liver, spleen and kidney, were recorded.

[11] = cited from earlier work
[12] = 125 mg/kg, intravenous, only the 5 mice that survived
[13] = sublingual route (oxytocin in physiological saline solution)

In the case of `CN1CC[C@]23c4c5ccc(O)c4O[C@H]2[C@@H](O)C=C[C@H]3[C@H]1C5` [Morphine, morphine], the ED50 (Swiss albino mice [1]; Mus musculus, ip, 0.5 h) is reported as 0.82 mg/kg, the Emax (Swiss albino mice [1]) is reported as 250 % of pre-dose latency and the locomotive activities (Swiss albino mice [2]; 50 mg/kg, intraperitoneal, between 60 min and 220 min post drug administration) is reported as “significant increase in locomotive activities”. For the same molecule, the “rotarod performance (time to slip)” value (Swiss albino mice [3]; 20 mg/kg, subcutaneous, 30 min, 1h30 min and 2h30 min post dose) was “No statistical significant effects”, the “rotarod performance (time to slip)” value (Swiss albino mice [3]; 20 mg/kg, subcutaneous, 30 min post drug administration, p=0.056) was “near significant decrease in performance” and the “Time to first writhe” value (Swiss albino mice [4]) was 190.75* % saline control. The “Total writhes in 15 min” value (Swiss albino mice [4]) was 38.18* % saline control, the “Writhes in first 5 min” value (Swiss albino mice [4]) was 12.5* % saline control and the “Writhes in subsequent 10 min” value (Swiss albino mice [4]) was 48.56* % saline control. The GI transit distance (Swiss albino mice [5]; 0.5 to 50 mg/kg intraperitoneal) was “dose-dependently decreased GI motility; also recorded: dose dependent inhibitory effect”.
In the case of `CN1C(=O)CN=C(c2ccccc2)c2cc(Cl)ccc21` [diazepam], the anxiety score (rats [6]; positive control) is reported as “decreased the anxiety score significantly” and the “times spent in open and closed arms” value (rats [7]; compared to DMSO-controls) is reported as “reversed the times spent in open and closed arms”.
In the case of `C[C@@H](O)[C@H](NC(=O)[C@@H]1CCCN1C(=O)[C@H](Cc1ccccc1)NC(=O)[C@@H]1CCCN1C(=O)[C@@H](N)CC(N)=O)C(=O)N[C@@H](Cc1c[nH]c2ccccc12)C(=O)N[C@@H](CCCNC(=N)N)C(=O)N[C@@H](CCCCN)C(=O)N[C@@H](CCCNC(=N)N)C(=O)N1CCC[C@H]1C(=O)NCC(=O)O` [the peptide, NPFPTWRKRPG] (H-NPFPTWRKRPG-OH), the anxiety scores (rats [6]; intraperitoneally, 1 or 50 mg/kg, compared to saline control) is reported as “did not show any effect on the anxiety scores”, the locomotive activities (Swiss albino mice [2]; 5 or 50 mg/kg, within 4 h of drug administration, compared to control) is reported as “no significant difference” and the “time spent in the open or closed arms” value (rats [7]; 1 or 50 mg/kg, 30 min or 3 h post-dose, compared to saline) is reported as “did not produce any significant changes”. For the same molecule, the plasma concentration ([8]; 1 hour after administration, other routes of administration) was “approximately undetectable”, the bioavailability ([8]; intraperitoneal route) was 0.5% and the level at 1 h ([8]; mouse, plasma, 25 mg/kg, 1 hour after administration, sublingual route) was > 100 ng/mL. The bioavailability ([8]; mouse, plasma, ip, intraperitoneal route, read-out: bioavailability) was 0.5%, the bioavailability ([8]; mouse, plasma, oral route, read-out: bioavailability) was 4% and the bioavailability ([8]; oral route) was 4%. The bioavailability ([8]; sublingual route) was 44%, the plasma concentration ([8]; sublingual, doses below 5 mg/kg, by 30 min after administration) was “negligible” and the Appearance (Swiss albino mice [9]; 8 mg/kg) was “normal”. For the same molecule, the “Body Weight Day 1” value (Swiss albino mice [9]; 8 mg/kg) was 26.2 ± 0.4 g, the “Body Weight Day 14” value (Swiss albino mice [9]; 8 mg/kg) was 31.7 ± 0.5 g and the Death (Swiss albino mice [9]; 8 mg/kg) was “nil”. For the same molecule, the Appearance (Swiss albino mice [9]; 80 mg/kg) was “normal”, the “Body Weight Day 1” value (Swiss albino mice [9]; 80 mg/kg) was 25.8 ± 0.6 g and the “Body Weight Day 14” value (Swiss albino mice [9]; 80 mg/kg) was 31.1 ± 0.7 g. For the same molecule, the Death (Swiss albino mice [9]; 80 mg/kg) was “Nil”, the “organ appearance and weights” value (Swiss albino mice [9]; single dose 8 or 80 mg/kg intraperitoneal, day 14) was “All organs appeared normal and no differences in weight were observed” and the obvious toxicity (Swiss albino mice [9]; single high dose up to 80 mg/kg) was “did not cause any obvious toxicity”. For the same molecule, the “rotarod performance (time to slip)” value (Swiss albino mice [3]; 1 or 10 mg/kg, sublingual, 1h, 2h and 3h post dose) was “No statistical significant effects”, the GI transit distance (Swiss albino mice [5]; 5 mg/kg and 50 mg/kg intraperitoneal) was “did not show any significant reduction” and the GI transit distance (Swiss albino mice [5]; 5 mg/kg and 50 mg/kg intraperitoneal, listed as The peptide) was “does not show any significant effect”. The blood pressure (Sprague-Dawley rats; intravenous route) was “dose dependent drop”, the blood pressure (Sprague-Dawley rats; intravenous route, listed as Peptide) was “decreased in blood pressure” and the blood pressure (Sprague-Dawley rats; sublingual or intraperitoneal routes) was “no change in blood pressure”. For the same molecule, the blood pressure (Sprague-Dawley rats; sublingual or intraperitoneal routes, listed as peptide) was “did not cause any changes in blood pressure”, the “Body Weight (g, 2 weeks postdose)” value (mice; 62.5 mg/kg, intravenous) was 34.7 ± 1.5 g and the “Body Weight (g, predose)” value (mice; 62.5 mg/kg, intravenous) was 30.0 ± 1.0 g. For the same molecule, the behaviour after administration (mice; 62.5 mg/kg, intravenous) was “appeared sedated after peptide but recovered after several hours”, the mice that died (mice; 125 mg/kg intravenous) was “four out of nine” and the time to death (mice; 125 mg/kg intravenous) was 5 to 10 min. For the same molecule, the “behaviour of surviving mice” value (mice; 125 mg/kg intravenous, five surviving mice) was “appeared heavily sedated for several hours”, the “Body Weight (g, 2 weeks postdose)” value (mice; [12]) was 33.6 ± 1.5 g and the “Body Weight (g, predose)” value (mice; [12]) was 28.6 ± 1.3 g. For the same molecule, the behaviour after administration (mice; 2 g/kg oral by gavage) was “appeared sedated with much decreased activity”, the “time to recovery from sedation” value (mice; 2 g/kg oral, listed as peptide) was “about 1 h” and the “Body Weight (g, 2 weeks postdose)” value (mice; 2g/kg, oral) was 33.0 ± 1.7 g. For the same molecule, the “Body Weight (g, predose)” value (mice; 2g/kg, oral) was 29.3 ± 1.5 g, the “time to recovery from sedation” value (mice; 2g/kg, oral) was ≤ 1 h and the LD50 (mice; administered intravenously, mice) was “about 125 mg/kg”. The Appearance (Swiss albino mice [10]; 8 mg/kg) was “normal”, the “Body Weight Day 1” value (Swiss albino mice [10]; 8 mg/kg) was 21.4 ± 0.8 g and the “Body Weight Day 14” value (Swiss albino mice [10]; 8 mg/kg) was 30.0 ± 0.4 g. The Death (Swiss albino mice [10]; 8 mg/kg) was “nil”, the Death (Swiss albino mice [10]; 8 mg/kg, listed as peptide) was “death of one mouse” and the Appearance (Swiss albino mice [10]; 80 mg/kg) was “normal”. The “Body Weight Day 1” value (Swiss albino mice [10]; 80 mg/kg) was 21.3 ± 0.5 g, the “Body Weight Day 14” value (Swiss albino mice [10]; 80 mg/kg) was 28.1 ± 1.2 g and the Death (Swiss albino mice [10]; 80 mg/kg) was “Nil”. For the same molecule, the “organ appearance and weights” value (Swiss albino mice [10]; 8 or 80 mg/kg intraperitoneal once daily for 14 days) was “All organs appeared normal and no differences in weight were observed” and the obvious toxicity (Swiss albino mice [10]; multiple high doses up to 80 mg/kg for 14 days) was “did not cause any obvious toxicity”.
In the case of desmopressin, the bioavailability [11, 13] is given as “about 0.25%”.
In the case of oxytocin, the bioavailability ([11]; formulation with 0.75% w/w sodium taurocholate (tablet form)) is listed as 27%, the bioavailability [11, 13] is listed as 0.007-0.07% and the bioavailability ([11]; sublingual route (oxytocin in physiological saline solution), listed as Oxytocin) is listed as 0.007 - 0.07%.
